From ChEMBL document CHEMBL4602695, “Discovery and SARs of 5-Chloro-N4-phenyl-N2-(pyridin-2-yl)pyrimidine-2,4-diamine Derivatives as Oral Available and Dual CDK 6 and 9 Inhibitors with Potent Antitumor Activity” (J Med Chem, 2020)
pIC50, pKd: −log10 of the molar value. ≈ marks a conversion by molar mass, not a printed value.

Tests used:
CDK6/cyclin D3 [1] = molecular target: T1, CDK6/cyclin D3 (Homo sapiens, UniProt Q00534); design: species or system Sf9
CDK2/Cyclin A2 = CDK2/Cyclin A2 (Homo sapiens, UniProt P24941); design: species or system Sf9
MCF7 = assay: Antiproliferative activity against human MCF7 cells assessed as inhibition of cell proliferation measured after 48 hrs by CCK8 assay; assay type: functional, cell-based; conditions: MCF7, 48 h
[2] = Cytotoxicity against human L02 cells assessed as inhibition of cell proliferation measured after 48 hrs by CCK8 assay; assay type: cell-based
MDA-MB-231 [3] = assay: Cell cycle arrest in human MDA-MB-231 cells assessed as accumulation at G0/G1 phase at 4 uM measured after 48 hrs by propidium iodide staining based flow cytometry (reference value: 57.65%); assay type: functional
MDA-MB-231 [4] = assay: Cell cycle arrest in human MDA-MB-231 cells assessed as accumulation at G2/M phase at 4 uM measured after 48 hrs by propidium iodide staining based flow cytometry (reference value: 15.9%); assay type: functional
MDA-MB-231 [5] = assay: Cell cycle arrest in human MDA-MB-231 cells assessed as accumulation at G0/G1 phase at 8 uM measured after 48 hrs by propidium iodide staining based flow cytometry (reference value: 57.65%); assay type: functional
MDA-MB-231 [6] = assay: Cell cycle arrest in human MDA-MB-231 cells assessed as accumulation at S phase at 8 uM measured after 48 hrs by propidium iodide staining based flow cytometry (reference value: 26.45%); assay type: functional
MDA-MB-231 [7] = assay: Cell cycle arrest in human MDA-MB-231 cells assessed as accumulation at G2/M phase at 8 uM measured after 48 hrs by propidium iodide staining based flow cytometry (reference value: 15.9%); assay type: functional
MDA-MB-231 [8] = assay: Cell cycle arrest in human MDA-MB-231 cells assessed as accumulation at G0/G1 phase at 12 uM measured after 48 hrs by propidium iodide staining based flow cytometry (reference value: 57.65%); assay type: functional
MDA-MB-231 [9] = assay: Cell cycle arrest in human MDA-MB-231 cells assessed as accumulation at S phase at 12 uM measured after 48 hrs by propidium iodide staining based flow cytometry (reference value: 26.45%); assay type: functional
MDA-MB-231 [10] = assay: Induction of apoptosis in human MDA-MB-231 cells assessed as early apoptotic cells at 4 uM measured after 48 hrs by Annexin V-FITC/propidium iodide staining based flow cytometry (0.877%); assay type: functional
MDA-MB-231 [11] = assay: Induction of apoptosis in human MDA-MB-231 cells assessed as late apoptotic cells at 4 uM measured after 48 hrs by Annexin V-FITC/propidium iodide staining based flow cytometry (2.78%); assay type: functional
MDA-MB-231 [12] = assay: Induction of apoptosis in human MDA-MB-231 cells assessed as viable cells at 8 uM measured after 48 hrs by Annexin V-FITC/propidium iodide staining based flow cytometry (95.8%); assay type: functional; conditions: MDA-MB-231, 48 h, read-out: Activity
MDA-MB-231 [13] = assay: Induction of apoptosis in human MDA-MB-231 cells assessed as early apoptotic cells at 8 uM measured after 48 hrs by Annexin V-FITC/propidium iodide staining based flow cytometry (0.877%); assay type: functional
MDA-MB-231 [14] = assay: Induction of apoptosis in human MDA-MB-231 cells assessed as late apoptotic cells at 8 uM measured after 48 hrs by Annexin V-FITC/propidium iodide staining based flow cytometry (2.78%); assay type: functional
MDA-MB-231 [15] = assay: Induction of apoptosis in human MDA-MB-231 cells assessed as necrotic cells at 8 uM measured after 48 hrs by Annexin V-FITC/propidium iodide staining based flow cytometry (0.498%); assay type: functional
MDA-MB-231 [16] = assay: Induction of apoptosis in human MDA-MB-231 cells assessed as early apoptotic cells at 12 uM measured after 48 hrs by Annexin V-FITC/propidium iodide staining based flow cytometry (0.877%); assay type: functional
MDA-MB-231 [17] = assay: Induction of apoptosis in human MDA-MB-231 cells assessed as necrotic cells at 12 uM measured after 48 hrs by Annexin V-FITC/propidium iodide staining based flow cytometry (0.498%); assay type: functional
CDK9/cyclin T1 = CDK9/cyclin T1 (Homo sapiens, UniProt P50750); assay: Binding affinity to recombinant full-length GFP-fused CDK9/His-tagged cyclin T1 (unknown origin) expressed in HEK293T cells measured after 30 mins by microscale thermophoresis method; design: species or system HEK-293T
Sequence of CDK9/cyclin T1 (O60563 whole entry, the tested form may be a part): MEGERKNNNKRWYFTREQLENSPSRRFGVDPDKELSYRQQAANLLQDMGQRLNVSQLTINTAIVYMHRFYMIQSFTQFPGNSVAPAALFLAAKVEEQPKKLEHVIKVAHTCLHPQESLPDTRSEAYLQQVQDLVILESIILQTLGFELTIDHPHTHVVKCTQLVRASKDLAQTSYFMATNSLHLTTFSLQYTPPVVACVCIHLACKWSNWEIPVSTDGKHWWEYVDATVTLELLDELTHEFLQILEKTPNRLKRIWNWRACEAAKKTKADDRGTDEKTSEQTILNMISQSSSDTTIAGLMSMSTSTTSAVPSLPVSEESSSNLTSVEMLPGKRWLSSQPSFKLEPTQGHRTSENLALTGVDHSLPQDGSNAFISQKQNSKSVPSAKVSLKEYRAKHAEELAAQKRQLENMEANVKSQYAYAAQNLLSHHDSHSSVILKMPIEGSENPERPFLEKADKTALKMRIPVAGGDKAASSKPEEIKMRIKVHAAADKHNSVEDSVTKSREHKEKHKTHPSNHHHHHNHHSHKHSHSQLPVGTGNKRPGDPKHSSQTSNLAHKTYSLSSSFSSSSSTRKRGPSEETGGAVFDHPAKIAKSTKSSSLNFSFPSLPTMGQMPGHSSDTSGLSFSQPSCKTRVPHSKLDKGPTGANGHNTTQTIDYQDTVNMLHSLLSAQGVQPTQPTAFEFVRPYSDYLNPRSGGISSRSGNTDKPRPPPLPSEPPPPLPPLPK
Sequence of CDK9/cyclin T1 (P50750 whole entry, the tested form may be a part): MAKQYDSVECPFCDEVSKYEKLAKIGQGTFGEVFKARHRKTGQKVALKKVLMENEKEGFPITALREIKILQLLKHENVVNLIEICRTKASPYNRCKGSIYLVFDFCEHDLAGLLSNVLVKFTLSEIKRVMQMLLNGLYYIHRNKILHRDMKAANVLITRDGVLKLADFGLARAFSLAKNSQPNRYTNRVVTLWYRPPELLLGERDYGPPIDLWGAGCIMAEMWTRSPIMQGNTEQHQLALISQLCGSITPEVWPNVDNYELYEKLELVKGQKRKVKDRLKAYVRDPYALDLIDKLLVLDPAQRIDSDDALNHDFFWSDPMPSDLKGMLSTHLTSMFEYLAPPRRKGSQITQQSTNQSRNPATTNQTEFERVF

CDK6/cyclin D3 [18] = molecular target: T1, CDK6/cyclin D3; assay: Binding affinity to recombinant full-length GFP-fused CDK6/His-tagged cyclin D3 (unknown origin) expressed in HEK293T cells measured after 30 mins by microscale thermophoresis method; design: species or system HEK-293T
[19] = Thermodynamic equilibrium solubility in water by HPLC-based shake flask method; assay type: physicochemical; conditions: read-out: Therm_solubility
[20] = Thermodynamic equilibrium solubility in normal saline by HPLC-based shake flask method; assay type: physicochemical; conditions: read-out: Therm_solubility
[21] = Apparent permeability in human Caco2 cells measured after 90 mins by LC-MS/MS analysis; assay type: ADME, cell-based; conditions: Caco-2
[22] = Half life in human hepatocytes by LC-MS/MS analysis; assay type: ADME, cell-based, Hepatocyte
[23] = Clearance in human hepatocytes assessed per million cells by LC-MS/MS analysis; assay type: ADME, cell-based, Hepatocyte; conditions: read-out: CLH
[24] = Half life in mouse hepatocytes by LC-MS/MS analysis; assay type: ADME, cell-based, Hepatocyte
[25] = Clearance in mouse hepatocytes assessed per million cells by LC-MS/MS analysis; assay type: ADME, cell-based, Hepatocyte; conditions: read-out: CLH
[26] = Stability in mouse hepatocytes assessed as parent compound remaining after 120 mins by LC-MS/MS analysis; assay type: ADME, cell-based, Hepatocyte; conditions: read-out: Stability
[27] = Half life in Sprague-Dawley rat at 2 mg/kg, iv by LC-MS/MS analysis; assay type: ADME, organism-based; conditions: in vivo
[28] = Cmax in Sprague-Dawley rat at 2 mg/kg, iv by LC-MS/MS analysis; assay type: ADME, organism-based; design: dose 2 mg/kg, route intravenous; conditions: in vivo
[29] = AUC (0 to infinity) in Sprague-Dawley rat at 2 mg/kg, iv by LC-MS/MS analysis; assay type: ADME, organism-based; design: dose 2 mg/kg, route intravenous, time infinity; conditions: in vivo
[30] = Clearance in Sprague-Dawley rat at 2 mg/kg, iv by LC-MS/MS analysis; assay type: ADME, organism-based; conditions: in vivo
[31] = Half life in Sprague-Dawley rat at 10 mg/kg, po by LC-MS/MS analysis; assay type: ADME, organism-based; conditions: in vivo
[32] = Tmax in Sprague-Dawley rat at 10 mg/kg, po by LC-MS/MS analysis; assay type: ADME, organism-based; conditions: in vivo
[33] = Cmax in Sprague-Dawley rat at 10 mg/kg, po by LC-MS/MS analysis; assay type: ADME, organism-based; design: dose 10 mg/kg, route oral; conditions: in vivo
[34] = AUC (0 to infinity) in Sprague-Dawley rat at 10 mg/kg, po by LC-MS/MS analysis; assay type: ADME, organism-based; design: dose 10 mg/kg, time infinity, route oral; conditions: in vivo
[35] = Clearance in Sprague-Dawley rat at 10 mg/kg, po by LC-MS/MS analysis; assay type: ADME, organism-based; conditions: in vivo
[36] = Toxicity in ICR mouse assessed as weight loss at 500 mg/kg, po administered as single dose measured for 7 days; assay type: organism-based; conditions: in vivo, 168 h
[37] = Toxicity in ICR mouse assessed as toxic reaction at 500 mg/kg, po administered as single dose measured for 7 days; assay type: organism-based; conditions: in vivo, 168 h
[38] = Toxicity in human MDA-MB-231 cells xenografted BALB/c nu/nu mouse assessed as body weight loss at 22.5 to 90 mg/kg, po administered once daily for 3 weeks and measured at 3 days interval during compound dosing; assay type: organism-based; conditions: in vivo
CDK9/Cyclin K = CDK9/Cyclin K (Homo sapiens, UniProt P50750); assay: biochemical
Sequence of CDK9/Cyclin K (P50750 whole entry): as the sequence (P50750 whole entry, the tested form may be a part) above
Sequence of CDK9/Cyclin K (O75909 whole entry, further chain): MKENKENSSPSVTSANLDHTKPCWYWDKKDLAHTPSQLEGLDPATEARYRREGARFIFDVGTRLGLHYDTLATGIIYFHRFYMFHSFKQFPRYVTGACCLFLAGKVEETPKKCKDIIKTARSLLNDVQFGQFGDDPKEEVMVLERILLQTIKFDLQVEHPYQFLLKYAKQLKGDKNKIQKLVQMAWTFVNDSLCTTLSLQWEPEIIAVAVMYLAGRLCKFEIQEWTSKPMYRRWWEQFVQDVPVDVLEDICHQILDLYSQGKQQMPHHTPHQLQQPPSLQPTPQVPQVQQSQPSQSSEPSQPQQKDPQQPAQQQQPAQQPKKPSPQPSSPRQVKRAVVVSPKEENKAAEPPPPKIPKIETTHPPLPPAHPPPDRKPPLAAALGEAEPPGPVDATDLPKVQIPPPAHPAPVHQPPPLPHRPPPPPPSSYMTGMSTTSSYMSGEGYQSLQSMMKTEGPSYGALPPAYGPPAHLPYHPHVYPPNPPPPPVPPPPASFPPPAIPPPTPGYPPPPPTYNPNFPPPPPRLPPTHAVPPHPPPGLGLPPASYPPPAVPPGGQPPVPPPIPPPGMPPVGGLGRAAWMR

T1 sequence (P30281 whole entry): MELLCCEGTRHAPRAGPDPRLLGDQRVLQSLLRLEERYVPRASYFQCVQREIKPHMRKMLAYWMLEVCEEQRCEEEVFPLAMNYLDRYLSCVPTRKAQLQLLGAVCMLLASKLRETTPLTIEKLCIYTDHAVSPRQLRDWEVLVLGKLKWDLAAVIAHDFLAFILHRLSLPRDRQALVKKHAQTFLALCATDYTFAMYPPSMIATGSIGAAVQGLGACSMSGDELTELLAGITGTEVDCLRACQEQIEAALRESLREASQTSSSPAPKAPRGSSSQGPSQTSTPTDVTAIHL
T1 sequence (Q00534 whole entry): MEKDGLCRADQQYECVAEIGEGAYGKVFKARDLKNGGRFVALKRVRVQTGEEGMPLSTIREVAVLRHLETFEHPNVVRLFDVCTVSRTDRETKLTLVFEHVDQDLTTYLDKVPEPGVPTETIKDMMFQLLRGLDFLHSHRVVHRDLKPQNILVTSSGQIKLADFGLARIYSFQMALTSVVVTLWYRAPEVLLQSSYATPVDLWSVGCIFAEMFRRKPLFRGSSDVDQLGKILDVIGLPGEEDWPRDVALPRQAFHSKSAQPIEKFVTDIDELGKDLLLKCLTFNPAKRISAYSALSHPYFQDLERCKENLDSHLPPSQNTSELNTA

With `CC(=O)Nc1cccc(Nc2nc(Nc3ccc(N4CCN(C)CC4)cn3)ncc2Cl)c1` the pIC50 (CDK6/cyclin D3 [1]) was 7.39, the pIC50 (CDK2/Cyclin A2) was under 5.00 and the pIC50 (MCF7) was 5.09 to 5.40. It also gave a GI50 at 48 h [2] of over 100000 nM, an Activity (MDA-MB-231 [3]) of 71.85% and an Activity (MDA-MB-231 [4]) of 9.18%. The Activity (MDA-MB-231 [5]) was 77.51%, the Activity (MDA-MB-231 [6]) was 14.36% and the Activity (MDA-MB-231 [7]) was 8.13%. For the same compound, the Activity (MDA-MB-231 [8]) was 50.5%, the Activity (MDA-MB-231 [9]) was 15.23% and the Activity (MDA-MB-231 [10]) was 2.08%. For the same compound, the Activity (MDA-MB-231 [11]) was 3.15%, the viability at 8 µM (MDA-MB-231 [12]) was 87.5% and the Activity (MDA-MB-231 [13]) was 5.06%. It also gave an Activity (MDA-MB-231 [14]) of 6.72%, an Activity (MDA-MB-231 [15]) of 0.766% and an Activity (MDA-MB-231 [16]) of 16.4%. It also gave an Activity (MDA-MB-231 [17]) of 2.24%, a pKd (CDK9/cyclin T1) of 7.52 and a pKd (CDK6/cyclin D3 [18]) of 7.15. It also gave a solubility thermodynamic [19] of 340 µg/mL (≈ 751 µM), a solubility thermodynamic [20] of 214 µg/mL (≈ 472 µM) and a Papp at 1.5 h [21] of 1.7 ×10⁻⁶ cm/s. For the same compound, the half-life [22] was 1.53 h, the hepatocyte CLint [23] was 7.5 µL/min/1e6 cells and the half-life [24] was 0.653 h. The hepatocyte CLint [25] was 17.7 µL/min/1e6 cells, the remaining at 2 h [26] was 12% and the half-life [27] was 1.76 h. For the same compound, the Cmax [28] was 995 ng/mL, the AUC(0-inf) [29] was 641 ng·h/mL and the clearance [30] was 52.2 mL/min/kg. It also gave a half-life [31] of 3.24 h, a Tmax [32] of 4 h and a Cmax [33] of 101 ng/mL. For the same compound, the AUC(0-inf) [34] was 926 ng·h/mL, the CL/F [35] was 180 mL/min/kg and the Activity [36] was “Non-Toxic”. The Activity [37] was “Non-Toxic”, the Activity [38] was “Non-Toxic” and the pIC50 (CDK9/Cyclin K) was 7.40.
